These results are taken from publication PMC9346113, “Therapeutic impact of BET inhibitor BI 894999 treatment: backtranslation from the clinic” (British Journal of Cancer, 2022).

Molecules are shown by their SMILES. Where only a bound is given, the exact number is not on record here.

The test system of test [1] is T1, BRD4-NUT.
T1 construct: endogenous in cells; host or cells: Ty-82 NUT carcinoma cells
Briefly: Immunofluorescence staining of NUT megadomains, Ty-82. Format: cell-based, human. As to the method:
Cells were seeded on four-well chamber slides (Merck Millipore, #PEZGS0416). After treatment, cells were fixed with 4% PFA (16% Solution, Thermo Fischer #28908 Paraformaldehyde, diluted 1:4 in PBS), permeabilised with 0,1% TX-100 (Sigma #93443, diluted in PBS). After blocking in blocking buffer (10% normal goat serum, Sigma #G9023–10ml, diluted in blocking solution: 2% BSA/PBS, Sigma #A7284–50ml, diluted 1:15 in PBS), the first antibody mAB rabbit anti-NUT 1:1000 (clone C52B1, Cell Signaling #3625) in blocking buffer was added, followed by incubation with the 2nd antibody goat anti-rabbit Alexa*488 1:1000 (Thermo Fisher, #A-11008) in blocking buffer in the dark. Cells were mounted with ProLong Gold Antifade Mountant with DAPI (Thermo Fisher, #P36931) and analysed using a Laser scanning microscope (LSM700). […]
Immunofluorescence staining of NUT megadomains on NC Ty-82 treated with BI with BI 894999 30nM for 1 h, then changed to 10 nM or 5 nM or 2.5 nM or control for 24 h.

Test [2] deals with HEXIM1. Briefly: HEXIM1 modulation in mouse blood. Conditions: mice; 2 mg/kg p.o. It is filed as in vivo. From the text: Cmax and PD modulation of Ty-82 tumors treated with BI 894999.
Test [3] deals with human solid and haematological cancer lines as well as primary patient-derived AML samples. Conditions: cited from earlier work.

On to `CNc1nc(-c2nc3ccc(N4CCN(C)CC4)cc3n2Cc2ccccc2)cn2c(C)nnc12` [BI 894999], for which the “time to detachment of BRD-NUT from chromatin” value in test [1] (10–30 nM in Ty-82, 3–10 nM in 10326) was not above 30 min. Besides, the “concentration at which BRD4-NUT detaches from chromatin / is re-distributed” value in test [1] (Ty-82, 30 min treatment) is 10 to 30 nM. For the same compound, in test [1] (washout experiments), the “speckled staining (BRD-NUT bound to chromatin) after washout” value is listed as “quickly restored”. Moreover, in test [2], the “HEXIM1 modulation in the blood” value is ~ 2 fold. Besides, in test [3] (AML cell lines), the GI50 values result is “single-digit nM range”. Further, in test [3] (cellular potency in large panels), the “fold more potent compared to other BET inhibitors (GSK525762, OTX015, JQ1)” value was “at least 10 fold”.
